Experiments:
[1] = target: T1, hGrA (Homo sapiens, UniProt P12544); assay: absorbance progress curve; format: biochemical
T1 sequence (P12544 29-262): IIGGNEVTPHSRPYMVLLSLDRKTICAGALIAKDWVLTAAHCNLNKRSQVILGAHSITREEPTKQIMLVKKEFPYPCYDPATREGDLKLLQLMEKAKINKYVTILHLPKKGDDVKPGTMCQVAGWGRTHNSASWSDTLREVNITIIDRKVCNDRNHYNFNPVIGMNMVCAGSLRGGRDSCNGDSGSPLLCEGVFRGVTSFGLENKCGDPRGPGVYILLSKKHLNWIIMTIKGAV

[2] = target: T2, mGrA (Mus musculus, UniProt P11032); assay: absorbance progress curve; format: biochemical
T2 sequence (P11032 29-260): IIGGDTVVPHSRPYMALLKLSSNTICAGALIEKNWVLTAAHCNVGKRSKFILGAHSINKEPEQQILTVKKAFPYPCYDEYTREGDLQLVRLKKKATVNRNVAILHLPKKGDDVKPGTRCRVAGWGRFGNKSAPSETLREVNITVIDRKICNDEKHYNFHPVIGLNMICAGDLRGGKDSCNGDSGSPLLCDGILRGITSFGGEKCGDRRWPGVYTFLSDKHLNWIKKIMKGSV

Q: What does the source list for `NCCCC[C@H](NC(=O)OCc1ccccc1)C(=O)SCc1ccccc1` [benzyloxy-carbonyl-Lys-thiobenzyl ester]?
A: specific activity [1]: Progress curves of mGrA (closed boxes) and hGrA (open boxes) cleaving benzyloxy-carbonyl-Lys-thiobenzyl ester; specific activity [2]: Progress curves of mGrA (closed boxes) and hGrA (open boxes) cleaving benzyloxy-carbonyl-Lys-thiobenzyl ester
